The values that follow come from patent US20070292967A1, “Assay for Ligands of the Ecdysone Receptor” (COMMONWEALTH SCIENTIFIC AND INDUSTRIAL RESEARCH OR, priority 2003, published 2007).

Test [1] deals with Lepidotera versus Diptera. Conditions: selectivity between insect orders; cited from earlier work.
For test [2], the target named is BtLBD, recombinant LBD heterodimer of ecdysone receptor from Bemisia tabaci. Description: equilibrium binding of [3H]ponasterone A to BtLBD. Conditions: Langmuir isotherm fit. The source says:
(§1) Data fitting using a computer algorithm (KalcidaGraph v3.09, Synergy Software) allowed us to obtain Kd values for each receptor-radioligand complex and to ascertain [LBD]tot. Comparison of the [LBD]tot value with the protein concentration of each purified sample indicated the proportion of the recombinant receptor LBD heterodimer molecules that was functional. Testing Fluorescent and Reference Ecdysteroids As Ligands Using a Radioligand-based Assay

The target of test [3] is MpLBD, recombinant LBD heterodimer of ecdysone receptor from Myzus persicae. Description: equilibrium binding of [3H]ponasterone A to MpLBD. Conditions: Langmuir isotherm fit.
From the text: as §1

In a further test the test system is LcLBD. Description: removal of bound [3H]ponasterone A from LcLBD by dialysis. In kind it is binding, Lucilia cuprina. Conditions: dialysis at room temperature. The text has this:
The same equilibrium binding experiments indicated the properties of functional receptor LBD heterodimer molecules in each preparation to be as follows: LcLBD, 21%; MpLBD, 16%; BtLBD, 8.4%. The value for HaLBD was not determined directly, but by indirect methods it was assigned a provisional value of 15%. The relatively low activity values agree with published observations for the full-length Drosophila melanogaster receptor, for which Sage et al. (1986) remark that ‘. . . the binding activity of unloaded receptor is inherently labile when subjected to standard protein purification techniques. Therefore, the ecdysteroid receptor needs to remain loaded with hormone during most manipulations’. While we agree that a much higher proportion of functional receptor protein can be obtained by conducting the purification in the presence of an ecdysteroid ligand (data not shown), the resulting receptor-ligand complex is not suitable for use in ligand-binding assays. Moreover, bound ecdysteroid ligands are slow to dissociate from the recombinant receptor LBDs. […] We therefore routinely purified the recombinant receptor LBD heterodimers in the absence of any ligands, and corrected the concentration values of the purified LBD heterodimer preparations to account for the proportion of non-functional heterodimer that was present. […]

Test [4] concerns the target LcLBD, recombinant LBD heterodimer of ecdysone receptor from Lucilia cuprina. As to the kind of experiment: equilibrium binding of [3H]ponasterone A to LcLBD. Conditions: Langmuir isotherm fit.
LcLBD, sequence (O18531 442-677 limits assumed): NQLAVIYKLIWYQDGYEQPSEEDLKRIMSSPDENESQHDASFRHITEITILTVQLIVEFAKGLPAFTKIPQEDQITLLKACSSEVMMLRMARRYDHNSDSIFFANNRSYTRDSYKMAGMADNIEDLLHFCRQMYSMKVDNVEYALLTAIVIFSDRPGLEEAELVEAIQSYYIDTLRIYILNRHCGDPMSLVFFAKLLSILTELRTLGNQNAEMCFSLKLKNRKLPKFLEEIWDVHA
From the text: as §1

Test [5] deals with HaLBD, recombinant LBD heterodimer of ecdysone receptor from Helicoverpa armigera. Description: equilibrium binding of [3H]ponasterone A to HaLBD. Conditions: Langmuir isotherm fit.
From the text: as §1

Several values for one entry are separate records, joined by “and”; a condition that tells them apart may be missing. Equal values may be shown once.

LcLBD, recombinant LBD heterodimer of ecdysone receptor from Lucilia cuprina, sequence (O18531 442-677 limits assumed, one chain of several): as the sequence (O18531 442-677 limits assumed) above

Turning to `CCc1ccc(C(=O)NN(C(=O)c2cc(C)cc(C)c2)C(C)(C)C)cc1` [RH-5992], the “effectiveness against Lepidotera relative to Diptera” value in test [1] was “two to three orders of magnitude more effective”.
Take “[24,25,26,27-^3H(N)]ponasterone A [[^3H]ponasterone A]”: the Kd in test [2] was 1.21 nM and 1.2 nM; in test [3], 0.7 nM and 0.72 nM and ~0.7 nM; in test [4], 1 ± 0.1 nM; in test [5] it was 2.53 ± 0.12 nM. The “half-life of the radioligand-receptor complex” value in the test with LcLBD is reported as “about 10 h”.

The term Kd denotes the free concentration of one partner at which half of the binding sites on the other are occupied at equilibrium, for simple one-to-one binding.
